# Assay results reported in patent publication US20040242476A1, “Male contraceptives” (The Population Council, Inc, priority 2001, published 2004).
# Experiments:
# [1] = tested on: inter-Sertoli TJ-permeability barrier; assay: Transepithelial electrical resistance (TER) across Sertoli cell epithelia; assay type: cell-based, rat
# Protocol: Preparation of Sertoli cell cultures. Primary Sertoli cells were isolated from 20-day-old Sprague-Dawley rat testes as previously described (Cheng et al., 1986). For low cell density cultures, Sertoli cells were plated at 5×10^4 cells/cm^2 in 100-mm Petri dishes [approximately 4.5×10^6 cells/100-mm dish/9 ml Ham's F12 Nutrient Mixture/Dulbecco's Modified Eagle's Medium (F12/DMEM, 1:1, vol/vol, Life Technologies, Inc.); F12/DMEM were supplemented with 15 mM HEPES, 1.2 g/L sodium bicarbonate, 10 μg/ml bovine insulin, 5 μg/ml human transferrin, 2.5 ng/ml EGF, 20 mg/L gentamicin and 10 μg/ml bacitracin. Sertoli cells cultured under low cell density formed monolayer epithelia without the assembly of inter-Sertoli TJs when monitored by TER measurement (Grima et al., 1998). However, both adherens junctions (AJs) and gap junctions (GJs) were formed (Chung et al., 1999). For high cell density cultures, Sertoli cells were plated on Matrigel™ (Collaborative Biochemical Products, Belford, Mass.)-coated (diluted 1:7 with F12/DMEM, vol/vol) 24-well dishes (effective surface area, approximately 1.88 cm^2, with 2 ml F12/DMEM per well) at a density of 0.6-3×10^6 cells/cm^2 as previously described (Grima et al., 1998) to allow formation of TJs, AJs and GJs, mimicking Sertoli cells found in vivo when assessed by various criteria (Grima et al., 1992). Cell cultures were incubated in a humidified atmosphere of 95% air and 5% CO2 (vol/vol) at 35° C. and TER readings were recorded 24 hr later and designated as cultures at day 1.
# Assessing the integrity of the inter-Sertoli TJ-permeability barrier by measuring the transepithelial electrical resistance (TER) across Sertoli cell epithelia To assess the effects of occludin peptide on the assembly of inter-Sertoli TJs, Sertoli cells isolated from 20-day-old rat testes were cultured at 1.2×10^6 cells/cm^2 to allow the assembly of inter-Sertoli TJs, and the TER, which is a quantitative measurement of TJ integrity, across the Sertoli cell epithelia was quantified as previously described (Wong et al., 2000; Grima et al. 1998). Cells were plated on Matrigel™ (1:7)-coated HA filters in the apical chamber (Millipore, Bedford, Mass.) (25, 28). Great care was taken so that air bubbles were not trapped between Sertoli cell aggregates, which is the major obstacle to obtain steady TER across the Sertoli cell epithelia since air bubbles create physical pores between adjacent Sertoli cells. TER across the Sertoli cell epithelia at specific time points was determined by a Millicell electrical resistance system as described (Grima et al., 1998; Cheng and Chung, 2001). The resistance in ohm was multiplied by the effective surface area of the bicameral unit (approximately 0.6 cm^2) to yield the area resistance (ohm.cm^2). The net value of electrical resistance was then computed by substracting the background, which was measured on the Matrigel-coated cell-free chambers, from values of Sertoli cell-plated chambers. To minimize temperature-induced fluctuations during TER measurement, cultures were stabilized at room temperature for 20-30 minutes prior to recording TER across the Sertoli cell epithelia. Synthetic occludin peptide at 0.2-4 μM was included in the basal (0.5 ml F12/DMEM containing 0.03% DMSO, vol/vol, DMSO was used to solubilize the peptide in medium) and apical (0.5 ml F12/DME containing 0.03% DMSO, vol/vol) chambers of the bicameral units 24 hours after freshly isolated Sertoli cells were plated onto Matrigel-coated units (day 1). […]
# [2] = tested on: Sertoli cells; assay: Trypan blue dye-exclusion cell viability test; assay type: cell-based, rat; details: peptide-treated cultures (data not shown)
# [3] = tested on: spermatogenesis in adult rat testis; assay: Intratesticular injection: testicular weight and histological analysis of the testis; assay type: in vivo
# Protocol: Intratesticular injection of occludin peptide and histological analysis of the testis. To assess the in vivo effects of the occludin peptide on spermatogenesis, peptide was administered to testes of adult rats by direct intratesticular injection as follows. Peptide was suspended in 0.9% sterile saline, sterilized by exposure to UV for 5 minutes. […] First, UV treated peptide retained the same retention time on reverse-phase HPLC using a Vydac C18 column (4.6×250 mm, i.d.) (Cheng et al., 1998; Cheng et al., 1989) when compared to peptide prior to the UV treatment. Second, the primary sequence of the UV-trated peptide remain unaltered when direct protein microsequencing was performed as described (Mruk and Cheng, 1990; Cheng et al., 1998; Cheng et al., 1989). Adult rats weighing between 250 and 300 g body weight were anesthetized with Metofane® before treatment. Rats received either 300 μl of 0.9% sterile saline (vehicle control), no treatment (control), or 1.5-10 mg of occludin peptide suspended in 300 μl of 0.9% sterile saline intratesticularly. The right testis of an animal received the peptide or vehicle and the left testis of the same animal was not treated and was used as a control. Peptide or vehicle was administered at 3 sites/testis with about 100 μl sample per site essentially as previously described (Grima et al., 1998; Eng et al., 1994). In another control group, rats were injected with a synthetic 22-amino acid peptide of NH2—[…]—COOH based on a known Sertoli cell protein, rat myotubularin (rMTM) (Li et al., 2000; Li et al., 2001), which had no sequence homology with occludin. Three rats were used in each treatment group and rats were sacrificed by CO2 asphyxiation at specific time points. Testes were removed immediately and fixed in 10% neutral buffered formalin. Testes were embedded in paraffin, and dehydrated in graded ethanol. For morphological analysis, 5 μm sections were cut and stained with hematoxylin and eosin. About 50 sections were examined at different sites for each testis using an Olympus BX40 microscope (Tokyo, Japan), interfaced to an Olympus PM-30 Exposure Control Unit.
# Following HPLC purification, occludin or myotubularin peptide was suspended in 0.9% sterile saline and sterilized under UV for 5 minutes. Each rat in the experimental group received an intratesticular injection of 300 μl of saline containing either 0.15 mg or 1.5 mg of the corresponding purified peptide. The peptide suspension was distributed in each testis at 3 sites (approximately […] per site) as described in Materials and Methods and detailed elsewhere (Grima et al., 1992; Eng et al., 1994). […] FIGS. 6D-F are another control set of testes where rats received an intratesticular injection of the myotubularin peptide at 10 (FIG. 6D), 23 (FIG. 6E), and 40 days (FIG. 6F) post-treatment.
# [4] = tested on: blood-testis barrier (BTB); assay: Blood-testis barrier integrity by micropuncture, [125I]-BSA in STF and RTF; assay type: in vivo, rat; details: for effect on BTB integrity: intratesticular injection 1.5 mg/testis
# Protocol: Assessing the occludin-peptide induced disruption of the blood-testis barrier (BTB) by micropuncture techniques.
# Briefly, 5 μg of BSA (Sigma, RIA grade, Mr 68 kDa) was radioiodinated by Iodogen (Fraker et al., 1978) using 1 mCi of [^125I]-sodium iodide (Amersham Pharmacia Biotech) as described (Cheng et al., 1983).
# Detection of [^125]-BSA in seminiferous tubular fluid (STF) and rete testis fluid (RTF). 2, 4, 6, and 12-week after an intratesticular administration of 1.5 mg of either occludin or myotubularin peptide/testis as described above (administered at 3 sites to the right testis) where the left testis of the same animal was used as a control. Rats (n=4-6 rats per time point, approximately 250 gm b.w. at the time of peptide treatment) were anesthetized with ketamine HCl (Fort Dodge Laboratories, Inc., Fort Dodge Iowa) at 60 mg/kg b.w. Micropuncture was performed essentially as described (Turner et al., 1984; Stahler et al., 1991). Briefly, testes were exposed through an abdominal incision, and the efferent ducts were ligated with surgical silk thread. Testes were then returned to the scrotum, wound cleansed with 70% ethanol, surgically closed and animals were allowed to recover. Twenty-four hours after efferent duct ligation, rats were anesthetized by ketamine HCl, bilateral nephrectomy was performed to prevent renal excretion of [^125I]-BSA, and approximately 6×10^6 cpm of [^125I]-BSA was infused into the rat via jugular vein. Two hours after infusion, testes were removed, RTF and STF were collected as described (Turner et al, 1984; Stahler et al., 1991) for radioactivity determination in a γ-counter. The left testis from the same animal without receiving either the occludin or myotubularin peptide served as a control, and both STF and RTF were also collected for radioactivity determination to assess the integrity of the BTB.
# [5] = Stability of peptide to UV sterilization (HPLC retention, microsequencing); assay type: physicochemical; details: UV 5 minutes, suspension in 0.9% saline
# Protocol: Intratesticular injection of occludin peptide and histological analysis of the testis. To assess the in vivo effects of the occludin peptide on spermatogenesis, peptide was administered to testes of adult rats by direct intratesticular injection as follows. Peptide was suspended in 0.9% sterile saline, sterilized by exposure to UV for 5 minutes. […] First, UV treated peptide retained the same retention time on reverse-phase HPLC using a Vydac C18 column (4.6×250 mm, i.d.) (Cheng et al., 1998; Cheng et al., 1989) when compared to peptide prior to the UV treatment. Second, the primary sequence of the UV-trated peptide remain unaltered when direct protein microsequencing was performed as described (Mruk and Cheng, 1990; Cheng et al., 1998; Cheng et al., 1989). Adult rats weighing between 250 and 300 g body weight were anesthetized with Metofane® before treatment. Rats received either 300 μl of 0.9% sterile saline (vehicle control), no treatment (control), or 1.5-10 mg of occludin peptide suspended in 300 μl of 0.9% sterile saline intratesticularly. The right testis of an animal received the peptide or vehicle and the left testis of the same animal was not treated and was used as a control. Peptide or vehicle was administered at 3 sites/testis with about 100 μl sample per site essentially as previously described (Grima et al., 1998; Eng et al., 1994). […]
# [6] = 1.5 mg/testis, 2, 4, 6 and 12 weeks, vs rats without peptide
Substance,"decline in TER compared to untreated controls ([1]; 4 μM, days 4-5)",toxicity to Sertoli cells ([1]; concluded from reversibility after peptide removal),"change in TER across Sertoli cell epithelia ([1]; peptide 0.2-4 μM added 24 hours after isolation, 1.2×10^6 cells/cm^2 (FIG. 4A))",time until TER reading indistinguishable from controls after peptide removal (TJ barrier reassembly) ([1]; peptide removed on day 5 by two washes (FIG. 4B)),cell viability versus control cultures [2],"reduction of seminiferous tubular diameter ([3]; 27 days, compared to control, vehicle or myotubularin peptide testes)",time for almost full recovery of testes ([3]; 68 days versus 27 days post-treatment),germ cell repopulation ([3]; after 27 days post treatment),appearance of the testis and the epididymis ([3]; after intratesticular injection),elongated spermatids in seminiferous epithelium ([3]; between 8 and 16 days after treatment),"germ cells in epithelium, virtually all tubules examined ([3]; by 27 days after intratesticular injection)",morphology of tubules ([3]; by 47 days post treatment),morphology of the seminiferous epithelium ([3]; by 68 days post treatment),"testicular weight ([3]; within 2 weeks after intratesticular injection of 0.15 mg or 1.5 mg, vs no treatment, vehicle or myotubularin peptide (FIG. 5))",effect on BTB integrity [4],effect of UV treatment on peptide structure [5],effects to perturb the inter-Sertoli TJ barrier ([1]; 4 μM (data not shown)),"radioactivity detected in RTF [4, 6]","radioactivity detected in STF [4, 6]"
H-GSQIYTICSQFYTPGGTGLYVD-OH [occludin peptide],approximately 50%,non-toxic,dose-dependent decline in TER,3 to 4 days,no apparent differences,20-30%,≤ 40 days,began to repopulate in the epithelium,appeared normal,began to deplete from the epithelium,Massive depletion of germ cells,spermatocytes were clearly visible in all the tubules examined,indistinguishable from control rats,reduction in testicular weight,disruption of the BTB,did not alter its structure,,,
NH2—TKVNERYELCDTYPALLAVPAN—COOH (H-TKVNERYELCDTYPALLAVPAN-OH) [myotubularin peptide],,,,,,,,,,,,,,,failed to induce disruption of the BTB,,no apparent effects,indistinguishable from control rats,indistinguishable from control rats
